For six compounds, GI50 and TGI results are on record in PubChem BioAssay (NCI).

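A five-concentration, 48-hour dose response in 96-well plates underlies each endpoint, interpolated linearly between surrounding concentrations. GI50: concentration for 50% inhibition of growth. TGI: total growth inhibition.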

Assay in all cases: growth of human tumour cells (NCI), 48 h
Test [1] relates to SW-620 colon.
Test [2] deals with 786-0 renal.
The subject of test [3] is SNB-75 CNS.
For test [4], the system named is OVCAR-5 ovarian.
Test [5] concerns PC-3 prostate.
For test [6], the system named is ACHN renal.
Test [7] has as its system MDA-MB-435.
In test [8] the test system is COLO 205 colon.
Test [9] has as its system MALME-3M melanoma.
Test [10] concerns BT-549 breast.

As for `COc1ccc(/C=C/c2c(C(=O)/C=C/c3ccc(C(F)(F)F)cc3)c(C)nc3ccccc23)cc1`, the GI50 in test [1] is 1480 nM; in test [2], 1610 nM; in test [3] it was 1430 nM; in [4], 2130 nM; in test [5], 1830 nM; in test [6] it was 1500 nM. In addition, the GI50 in [7] is 1890 nM; in [8], 2100 nM; in test [9], 1710 nM; in test [10] it was 1800 nM. The TGI in test [1] amounted to 4700 nM; in [2], 3020 nM; in test [3] it was 2850 nM; in test [4] it was 5530 nM; in test [5], 5580 nM; in [6], 2840 nM. The TGI in [7] came out at 3720 nM; in [8], 4670 nM; in [9], 3190 nM; in test [10], 4000 nM.
In the case of `CCN(CC)CCCC(C)Nc1cc(-c2cccc(OC(F)(F)F)c2)nc2ccc(N3CCCC3)cc12` (configuration not stated), the GI50 was 43.3 nM in [1]; 158 nM in test [2]; 36.1 nM in test [3]; 348 nM in test [4]; 280 nM in test [5]; 74.4 nM in [6]. Besides, the GI50 in test [7] was 22.3 nM; in test [8], 213 nM; in test [9], 67.9 nM; in test [10], 201 nM. In addition, the TGI was over 100000 nM in [1]; 26100 nM in [2]; 59400 nM in test [3]; over 100000 nM in test [4]; over 49500 nM in test [5]; 39000 nM in [6]. Further, the TGI in test [7] was 51.9 nM; in [8], 1510 nM; in test [9] it was 32600 nM; in test [10] it was 3390 nM.
As to `S=C1Cc2c(-c3ccc(Br)cc3)cc(-c3ccccc3)nc2-c2ccccc2N1`, the TGI is 9150 nM in [1]; 1790 nM in [2]; 3350 nM in [3]; 14400 nM in test [4]; 23300 nM in [5]; 2350 nM in [6]. For the same compound, the TGI is 20600 nM in test [7], 21400 nM in [8], 7410 nM in test [9] and 18000 nM in [10]. Besides, the GI50 in test [2] is 632 nM; in test [6], 867 nM.
Consider `O=C(NCCCc1cn[nH]c1)c1ccc(-c2ccncc2)c(C#Cc2ccc(F)cc2)c1`, for which the GI50 is under 10 nM in [1]; 3660 nM in [2]; 8820 nM in test [3]; 122 nM in [4]; under 10 nM in test [5]; 6910 nM in test [6]. For the same compound, the GI50 in [7] is under 10 nM; in test [8], under 10 nM; in test [9] it was 10200 nM; in [10], 369 nM. The TGI in [1] was over 100000 nM; in test [2], over 64100 nM; in test [3] it was over 100000 nM; in test [4], over 100000 nM; in test [5], 76800 nM; in test [6] it was over 100000 nM. Also, the TGI is over 87800 nM in test [7], 46100 nM in test [8], 54200 nM in test [9] and 60900 nM in test [10].
On to `C#Cc1cccc(Nc2nc(Cl)nc3cc(NC(=O)CCl)ccc23)c1`, for which the GI50 in [1] is 510 nM; in [2], 449 nM; in test [3] it was 1130 nM; in test [4] it was 1410 nM; in [5] it was 1050 nM; in test [6] it was 1480 nM. Further, the GI50 is 1040 nM in test [7], 586 nM in [8], 1000 nM in [9] and 531 nM in test [10]. In addition, the TGI in test [1] is 1210 nM; in test [2] it was 949 nM; in test [3], 5130 nM; in [4], 4450 nM; in test [5], 4710 nM; in [6], 4630 nM. In addition, the TGI in test [7] was determined as 3830 nM; in test [8] it was 1350 nM; in test [9], 2250 nM; in test [10], 2570 nM.
Consider `CC(C)N(Cc1ccc(CN(C(=O)CCl)C(C)C)cc1)C(=O)CCl`, for which the GI50 in [1] was 1450 nM; in test [2] it was 351 nM; in test [3], 1290 nM; in test [4] it was 1910 nM; in test [5], 2270 nM; in test [6], 1880 nM. In addition, the GI50 in test [7] is 1700 nM; in [8] it was 2160 nM; in [9] it was 186 nM; in test [10] it was 1870 nM. The TGI in [1] was determined as 4220 nM; in test [2], 1300 nM; in test [3], 2590 nM; in test [4] it was 3970 nM; in [5], 5480 nM; in test [6] it was 3740 nM. The TGI was determined as 4900 nM in [7], 4360 nM in [8], 453 nM in test [9] and 4160 nM in test [10].
